For five compounds, EC50 and IC50 results are on record in ChEMBL document CHEMBL1201862, “PubChem BioAssay data set” (2004).

Calls of active or inactive are those of the source.

The test system of one assay is H4. The experiment in a line: Luminescence Cell-Based Dose Response HTS to Identify Activators of 5'UTR Stem-Loop Driven Prion Protein mRNA Translation in H4 Neuroglioblastoma Cells. [Related pubchem assays: 1829 (Project Summary), 1814 (Primary HTS)]. It is filed as functional. Conditions: Homo sapiens.
For assay [1], the system named is Streptococcus sp. 'group A'. The experiment in a line: Streptococcus pyogenes SK(-)GAS viability under kanamycin – luminescence, BacTiterGlo, confirmation, counter-screen for streptokinase expression inhibitor project, dose response (AID 1900). It is filed as functional, organism-based.
The target of assay [2] is T1, Neuropeptide Y receptor type 2 (Homo sapiens, UniProt P49146).
T1 sequence (P49146 whole entry): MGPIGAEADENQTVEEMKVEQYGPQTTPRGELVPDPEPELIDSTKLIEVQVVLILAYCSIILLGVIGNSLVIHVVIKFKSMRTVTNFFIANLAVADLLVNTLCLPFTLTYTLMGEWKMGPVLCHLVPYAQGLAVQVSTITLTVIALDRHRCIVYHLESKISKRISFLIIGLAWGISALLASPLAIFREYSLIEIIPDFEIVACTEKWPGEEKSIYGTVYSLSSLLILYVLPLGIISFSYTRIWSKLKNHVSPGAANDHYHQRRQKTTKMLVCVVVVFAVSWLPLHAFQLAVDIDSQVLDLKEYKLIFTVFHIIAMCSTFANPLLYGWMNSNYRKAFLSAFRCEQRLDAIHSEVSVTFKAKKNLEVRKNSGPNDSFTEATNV
The experiment in a line: IC50 for human NPY-Y2 blockade – cell-based, counter-screen for NPY-Y1 antagonist project, dose response (AID 1278). It is filed as functional.

In the next assay the target is T2, Streptokinase A (Streptococcus pyogenes serotype M1, UniProt P10520).
T2 sequence (P10520 whole entry): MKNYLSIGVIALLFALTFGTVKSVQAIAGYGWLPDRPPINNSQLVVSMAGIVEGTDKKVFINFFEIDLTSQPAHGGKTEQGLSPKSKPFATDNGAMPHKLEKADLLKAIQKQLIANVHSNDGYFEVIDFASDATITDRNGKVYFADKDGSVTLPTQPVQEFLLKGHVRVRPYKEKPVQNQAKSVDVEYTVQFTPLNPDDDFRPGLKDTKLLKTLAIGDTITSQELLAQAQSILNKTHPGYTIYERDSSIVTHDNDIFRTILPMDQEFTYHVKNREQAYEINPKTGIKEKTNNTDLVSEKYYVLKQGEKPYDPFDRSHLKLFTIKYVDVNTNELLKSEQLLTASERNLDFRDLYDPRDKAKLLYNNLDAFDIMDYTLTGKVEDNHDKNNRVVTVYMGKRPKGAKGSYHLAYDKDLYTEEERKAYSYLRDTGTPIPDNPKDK
The experiment in a line: viability-normalized secreted streptokinase activity reduction – plasminogen activation absorbance, OD405, dose response (AID 1914).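 Further: secreted streptokinase activity via plasminogen activation per viability signal from cell pellet.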 In kind it is functional, Streptococcus pyogenes M1 GAS.

The next assay has as its system Streptococcus. The experiment in a line: GAS UMAA2166 growth inhibition – luminescence, BacTiterGlo, counter-screen for streptokinase expression inhibitor project, dose response (AID 1915).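 Further: potency for reduction of bacterial viability or growth.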 It is filed as functional, organism-based.
For assay [3], the target named is T3, Neuropeptide Y receptor type 1 (Homo sapiens, UniProt P25929).
T3 sequence (P25929 whole entry): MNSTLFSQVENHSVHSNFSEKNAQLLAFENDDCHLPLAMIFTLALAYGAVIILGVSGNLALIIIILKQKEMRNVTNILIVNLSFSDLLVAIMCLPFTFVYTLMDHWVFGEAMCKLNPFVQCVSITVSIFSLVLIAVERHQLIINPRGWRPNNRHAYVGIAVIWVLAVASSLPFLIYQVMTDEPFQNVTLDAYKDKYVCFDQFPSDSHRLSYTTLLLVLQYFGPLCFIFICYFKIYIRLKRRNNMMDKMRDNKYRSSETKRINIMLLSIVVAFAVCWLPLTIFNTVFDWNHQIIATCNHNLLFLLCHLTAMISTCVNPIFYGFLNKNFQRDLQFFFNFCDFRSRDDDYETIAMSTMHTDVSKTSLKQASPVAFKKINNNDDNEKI
The experiment in a line: IC50 of human NPY-Y1 blockers – cell-based, dose response (AID 1277). In kind it is functional.

Assay [4] in a line: Luminescence Cell-Based Dose Response HTS to Identify Activators of Luciferase Translation or Activity in H4 […] Cells. [Related pubchem assays: 1829 (Project Summary), 1814 (Primary HTS)]. In kind it is functional.
In assay [5] the target is T3, Neuropeptide Y receptor type 1. It is filed as functional.
Assay [6] concerns the target T1, Neuropeptide Y receptor type 2. In kind it is functional, cell-based.
Assay [7] can be described thus: CCR5-tropic HIV-1 fusion blockers – cell-based, CCR5-tropic Env, dose response (AID 2279). It is filed as functional.
The target in the next assay is T4, Leucine aminopeptidase (Plasmodium falciparum 3D7, UniProt Q8IL11).
T4 sequence (Q8IL11 whole entry): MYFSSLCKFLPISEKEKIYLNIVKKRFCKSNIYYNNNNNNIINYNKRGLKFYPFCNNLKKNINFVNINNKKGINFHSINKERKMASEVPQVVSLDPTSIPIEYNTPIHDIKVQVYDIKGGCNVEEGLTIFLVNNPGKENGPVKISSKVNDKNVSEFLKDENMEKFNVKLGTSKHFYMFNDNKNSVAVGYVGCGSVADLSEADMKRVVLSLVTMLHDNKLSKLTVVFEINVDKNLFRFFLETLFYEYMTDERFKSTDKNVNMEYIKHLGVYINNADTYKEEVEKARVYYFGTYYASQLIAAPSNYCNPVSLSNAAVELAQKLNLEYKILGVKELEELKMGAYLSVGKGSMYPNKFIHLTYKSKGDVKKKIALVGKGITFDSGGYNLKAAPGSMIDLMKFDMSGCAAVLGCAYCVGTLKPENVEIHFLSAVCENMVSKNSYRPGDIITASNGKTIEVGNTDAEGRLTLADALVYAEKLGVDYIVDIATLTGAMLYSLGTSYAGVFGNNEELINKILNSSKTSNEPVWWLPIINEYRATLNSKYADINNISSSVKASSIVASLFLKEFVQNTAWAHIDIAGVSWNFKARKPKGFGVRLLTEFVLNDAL
The experiment in a line: P. falciparum M17LAP inhibitors, primary screen, biochemical, fluorogenic H-Leu-NHMec substrate, 1536-well (AID 1619). It is filed as functional.

Assay [8] has as its target T5, Type-1 angiotensin II receptor (Homo sapiens, UniProt P30556).
T5 sequence (P30556 whole entry): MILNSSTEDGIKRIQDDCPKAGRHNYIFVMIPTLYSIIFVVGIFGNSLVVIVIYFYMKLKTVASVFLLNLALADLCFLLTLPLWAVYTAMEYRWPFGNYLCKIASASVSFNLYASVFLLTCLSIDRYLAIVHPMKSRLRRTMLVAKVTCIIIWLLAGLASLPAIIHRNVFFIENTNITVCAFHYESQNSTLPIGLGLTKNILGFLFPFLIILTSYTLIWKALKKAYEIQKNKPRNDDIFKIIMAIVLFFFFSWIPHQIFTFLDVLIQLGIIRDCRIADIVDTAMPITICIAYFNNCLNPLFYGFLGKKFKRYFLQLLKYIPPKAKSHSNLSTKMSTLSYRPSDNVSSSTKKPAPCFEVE
The experiment in a line: antagonism of angiotensin II type 1 receptor – cell-based, uHTS hits, selectivity assay for APJ receptor antagonist project, dose response (AID 463214).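 Further: antagonist potency against angiotensin II stimulated AT1 response.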 It is filed as functional.

A further assay has as its target Beta-galactosidase (Escherichia coli, UniProt Q8VNN2). The experiment in a line: PubChem AID 485352. In kind it is functional.
Assay [9] in a line: mitochondrial function rescue without frataxin homolog – Friedreich's ataxia, plus single-dose screen, dose response (AID 1465).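 Further: yeast depleted of Yfh1p frataxin homolog grown on glycerol needing respiration; WST-1 tetrazolium dye reduction as measure of cellular dehydrogenase metabolic activity.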 In kind it is functional.

Beta-galactosidase, sequence (Q8VNN2 whole entry): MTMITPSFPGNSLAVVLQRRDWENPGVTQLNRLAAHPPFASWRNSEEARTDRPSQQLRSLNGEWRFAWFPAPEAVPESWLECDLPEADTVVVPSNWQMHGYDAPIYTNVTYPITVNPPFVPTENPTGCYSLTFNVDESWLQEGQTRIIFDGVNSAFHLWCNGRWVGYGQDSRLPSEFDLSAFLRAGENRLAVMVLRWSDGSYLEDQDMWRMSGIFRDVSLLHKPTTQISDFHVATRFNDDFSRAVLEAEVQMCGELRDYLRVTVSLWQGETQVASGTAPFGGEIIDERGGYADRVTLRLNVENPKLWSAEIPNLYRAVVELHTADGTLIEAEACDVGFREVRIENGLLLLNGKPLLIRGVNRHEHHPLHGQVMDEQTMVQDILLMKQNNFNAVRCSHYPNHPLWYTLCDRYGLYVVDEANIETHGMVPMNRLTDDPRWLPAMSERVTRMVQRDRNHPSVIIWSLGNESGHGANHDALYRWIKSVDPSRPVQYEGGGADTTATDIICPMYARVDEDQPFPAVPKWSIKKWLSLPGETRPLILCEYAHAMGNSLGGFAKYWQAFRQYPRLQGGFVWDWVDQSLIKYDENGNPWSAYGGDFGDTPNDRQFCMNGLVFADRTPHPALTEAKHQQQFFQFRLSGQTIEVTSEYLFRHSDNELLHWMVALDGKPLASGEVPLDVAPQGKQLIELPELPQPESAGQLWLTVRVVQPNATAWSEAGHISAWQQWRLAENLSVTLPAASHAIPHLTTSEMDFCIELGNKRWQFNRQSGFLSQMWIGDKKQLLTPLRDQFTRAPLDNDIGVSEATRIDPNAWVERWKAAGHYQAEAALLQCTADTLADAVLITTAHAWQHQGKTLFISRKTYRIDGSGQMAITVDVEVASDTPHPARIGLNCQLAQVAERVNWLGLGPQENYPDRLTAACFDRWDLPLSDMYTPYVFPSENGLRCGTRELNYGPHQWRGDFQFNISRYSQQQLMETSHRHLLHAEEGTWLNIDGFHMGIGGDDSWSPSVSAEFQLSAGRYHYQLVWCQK

For the compound `Clc1ccc(-c2csc(Nc3ccccc3)[n+]2Cc2ccco2)c(Cl)c1`, the 50% effective concentration (EC50) was 51.2 µM (active) with H4; 12.3 µM (active) in assay [1]; 2.27 µM (active) at Streptokinase A; > 150 µM (not active) in the assay on Streptococcus; > 120 µM (not active) in assay [4]. Besides, the IC50 in assay [2] and in assay [3] was > 35 µM (not active) each time.
For `Cc1ccccc1/C=C/c1nc2ccccc2c(=O)n1CCc1ccccc1`, the results for the IC50 in assay [5] and in assay [6] were 4.26 µM (active) and 5.52 µM (active), respectively.
With `COc1cc([N+](=O)[O-])cc(/C=C2/SC(=S)N(Cc3ccccc3)C2=O)c1O`, in [7], the IC50 was 8.82 µM (active).
Consider `OC1(c2ccccc2)CCN(Cc2ccccc2)C2CCCCC21` (stereo unspecified), for which the IC50 in [5] was 10.2 µM (not active); in assay [6] it was 4.38 µM (active).
For the compound `Cc1ccc(N/N=C2/C(=O)Nn3c2nc(C)cc3=O)cc1`, the half-inhibitory concentration (IC50) on Leucine aminopeptidase was 86.1 µM (active); in assay [8], > 40 µM (not active). In addition, the figures for the EC50 (on Beta-galactosidase; in [9]) were > 40 µM (inactive) and > 100 µM (active), respectively.
